How the values were obtained:
[1] = system: human gastric cancer cells SGC-7901; assay: CCK-8 growth and proliferation activity, SGC-7901 cells; assay type: cell-based; conditions: for inhibition of the activity of gastric cancer cells (single agent): SGC-7901, 24 h, concentration gradients; for IC50 / IC50 of SGC-7901 cells: SGC-7901, treated for 24 h
Description: (§1) Human gastric cancer cell line SGC-7901 was purchased from Shanghai Genechem Co., Ltd. and human gastric cancer cell line AGS was purchased from Cell Bank of American Type Culture Collection (ATCC) (ATCC No. CRL-1739).
(§2) In FIG. 5, the mass ration of composition is as follows: (a) mPD: mPaclitaxel=22.65:1 (Example 3); (b) mPD: mPaclitaxel=45.29:1; (c) mPD: mPaclitaxel=90.59:1; (d) mPD: mPaclitaxel=226.48:1. In FIG. 6, the mass ration of composition is as follows: (a) mPD: mPaclitaxel=8.44:1; (b) mPD: mPaclitaxel=16.88:1; (c) mPD: mPaclitaxel=33.77:1 (Example 4).
(§3) In FIG. 7, the mass ration of composition is as follows: (a) mPD: mPactitaxel=45.29:1; (b) mPD: mPaclitaxel=90.59:1; (c) mPD: mPaclitaxel=226.48:1. In FIG. 8, the mass ration of composition is as follows: (a) mPD: mPaclitaxel=16.88:1; (b) mPD: mPaclitaxel=33.77:1.

[2] = system: human gastric cancer cells AGS; assay: CCK-8 growth and proliferation activity, AGS cells; assay type: cell-based; conditions: for inhibition of the activity of gastric cancer cells (single agent): 24 h, concentration gradients; for IC50 / IC50 of AGS cells: treated for 24 h
Description: as §1, §2, §3

Row | Compound | inhibition of the activity of gastric cancer cells (single agent) [1] | IC50 [1] [µM] | IC50 of SGC-7901 cells [1] [µg/mL] | inhibition of the activity of gastric cancer cells (single agent) [2] | IC50 [2] [µM] | IC50 of AGS cells [2] [µg/mL]
1 | CC(=O)O[C@H]1C(=O)[C@@]2(C)[C@H]([C@H](OC(=O)c3ccccc3)[C@]3(O)C[C@H](OC(=O)[C@H](O)[C@@H](NC(=O)c4ccccc4)c4ccccc4)C(C)=C1C3(C)C)[C@]1(OC(C)=O)CO[C@@H]1C[C@@H]2O [Paclitaxel] | inhibit the activity of both gastric cancer cells in a concentration-dependent manner | 5.27 | 5.5 | inhibit the activity of both gastric cancer cells in a concentration-dependent manner | 3.34 | 6.3
2 | Polydatin | inhibit the activity of both gastric cancer cells in a concentration-dependent manner | 139 | 124.0 | inhibit the activity of both gastric cancer cells in a concentration-dependent manner | 56.2 | 53.5

Source: patent US20210000852A1, “POLYDATIN PACLITAXEL COMPOSITION, AND APPLICATION IN PREPARING MEDICAMENT FOR PREVENTING AND TREATING GASTRIC CANCER” (Tianjin Medical University Cancer Institute and Hospital, priority 2018, published 2021)
